The source of these data is patent publication US9708628B2, “Cationic lipid having improved intracellular kinetics” (NOF CORPORATION, priority 2011, dated 2017).

Data set [1] in a line: Particle size and surface potential of pDNA-encapsulating MENDs, dynamic light scattering (Zetasizer Nano). Type of data set: physicochemical. On the procedure: A solution of pDNA encoding luciferase gene and protamine (CALBIOCHEM) solution were diluted with 10 mM HEPES buffer to 0.3 mg/mL and […], respectively. While stirring 0.3 mg/mL pDNA (125 μL), 0.24 mg/mL protamine (125 μL) was added dropwise in small portions to prepared an electrostatic complex of protamine and pDNA (N/P ratio=1.2) as a core of the vector. In the method described in the following (2), 10 mM HEPES buffer (pH 5.3) was used and, in the method described in (3), 10 mM HEPES buffer (pH 7.4) was used.
A lipid solution in ethanol was prepared by mixing 5 mM cationic lipid, 5 mM phospholipid and 5 mM cholesterol (Chol) at desired ratios to achieve 165 nmol total lipid in an Eppendorf tube, further adding various PEG lipids (1 mM solution in ethanol) in an amount corresponding to 3 mol % of the total lipid, and adding ethanol to achieve a total volume of 100 μL. While stirring the lipid solution in a vortex mixer, 100 μL of the nucleic acid electrostatic complex (10 mM HEPES; pH 5.3) prepared in [Experimental Example 1] (1) was quickly added, and thereafter 10 mM HEPES buffer (1.8 mL, adjusted to pH 5.3) was added to dilute the mixture to an ethanol concentration of 5%. The mixture was concentrated to about 50 μL by ultrafiltration using Amicon Ultra 4 (Millipore) under centrifugation conditions (room temperature, 2267 rpm, 20 min). Thereafter, it was diluted to 4 mL with 100 mM HEPES buffer (adjusted to pH 7.4), and again concentrated by centrifugation (2267 rpm, 20 min) under room temperature conditions. Finally, it was diluted with 10 mM HEPES buffer (pH 7.4) to a desired lipid concentration.
A solution of each lipid in chloroform (5 mM DOTAP 24.75 μL, 5 mM DOPE 33 μL, 5 mM Chol 24.75 μL) were mixed in a glass test tube at DOTAP:DOPE:Chol=3:4:3 to achieve 412.5 nmol total lipid. Ethanol was added to a total amount of 250 μL, and the mixture was dried under reduced pressure in a desiccator. The solvent was evaporated to give a lipid thin film. To the lipid thin film was added 250 μL of the gene electrostatic complex (in 10 mM HEPES; pH 7.4) prepared in [Experimental Example 1] (1) to a total lipid concentration of 1.65 mM, and the mixture was stood at room temperature for 10 min to allow for hydration, and sonicated by a sonicator (AIWA MEDICAL […] CO., LTD.) for 1 min.
The particle size and the surface potential were measured by the dynamic light scattering method (Zetasizer Nano; Malve Rn). The particle size and the surface potential of the various MENDs prepared by the preparation method of [Experimental Example 1] are shown in Table 3. The charge of B-2 and DODAP at physiological pH was in a preferable mode of −10 to +10 mV, whereas that of B-2-1 was +12.3, which is not less than +10 mV.
(1) MEND having a composition of B-2-4 (Example 4):DOPE:Chol=3:3:4 or B-2-5 (Example 5):POPE:Chol=3:4:3 was prepared according to the method described in [Experimental Example 1] (1) and (2).
The particle size and the surface potential were measured by the dynamic light scattering method (Zetasizer Nano; Malvern). The particle size and the surface potential of the various MENDs prepared by the preparation method of [Experimental Example 1] are shown in Table 4.

In a further data set the test system is Factor VII (FVII). The data set is described as follows: Knockdown effect of siRNA-encapsulated MEND (plasma FVII). Particulars: 3 mg siRNA/kg, tail vein, 24 hr. Type of data set: in vivo, ICR mice. Here is the method: (§1) A siRNA solution and protamine (CALBIOCHEM) solution were diluted with 10 mM HEPES buffer (pH 5.3) to 0.3 mg/mL and 0.2 mg/mL, respectively. While stirring 0.3 mg/mL siRNA solution (250 μL), 0.2 mg/mL protamine solution (250 μL) was added dropwise in small portions to prepared an electrostatic complex of siRNA and protamine (N/P ratio=1.0) as a core of the vector.
As a siRNA sequence for Factor VII (FVII), one described in Akinc et al, Molecular Therapy, 17(5) 872-879 (2009), which was free of chemical modification, was used.
(§2) A lipid solution in ethanol was mixed at a ratio of B-2:SOPE:Chol=5:3:2 for B-2 MEND (Example 1), at a ratio of B-2-4:DOPE:Chol=3:3:4 for B-2-4 MEND (Example 4), and at a ratio of B-2-5:POPE:Chol=3:4:3 for B-2-5 MEND (Example 5), to a total lipid of 660 nmol in a 5 mL tube. Further, PEG2000-DMG was added as PEG lipid in an amount equivalent to 3 mol % of the total lipid, and ethanol was added to a total volume of 400 μL each. While stirring the lipid solution by a vortex mixer, a solution (400 μL) of a nucleic acid electrostatic complex composed of siRNA/protamine prepared in [Experimental Example 27] was mixed, then 10 mM HEPES buffer (pH 5.3, 2.4 mL) was quickly added, and the mixture was vigorously stirred. The mixture was subjected to centrifugal ultrafiltration using Amicon Ultra-15 100K device (Millipore) at 1000 g, 10 min, 30° C. The mixture was sufficiently diluted with 10 mM HEPES buffer (pH 7.4), and again subjected to centrifugal ultrafiltration. This solution was adjusted to an object lipid concentration with 10 mM HEPES buffer (pH 7.4).
A MEND solution prepared by the method shown in [Experimental Example 28] was administered to 4-week-old male ICR mice at 3 mg siRNA/kg from the tail vein, and blood was collected 24 hr later. This blood sample was centrifuged at 1000 g, 10 min, 4° C., and the supernatant was recovered to obtain plasma. The amount of Factor VII (FVII) in the plasma was quantified by BIOPHEN FVII CHROMOGENIC ASSAY (HYPHEN BioMed).

The nature of data set [2]: Particle size and surface potential of siRNA-encapsulated MEND (ethanol dilution method). Type of data set: physicochemical. Particulars: siRNA/protamine MEND, PEG2000-DMG 3 mol %. Here is the method:
as §1, §2
The particle size and surface potential were measured using the dynamic light scattering method (Zetasizer Nano; Malvern). The particle size and surface potential of various MENDs prepared by the preparation method of [Experimental Example 28] are shown in Table 5.

Where [3] appears, read: pDNA MEND, cationic lipid:SOPE:Chol = 3:4:3.
[4] abbreviates: pDNA MEND, cationic lipid:SOPE:Chol = 5:3:2.
[5] abbreviates: pDNA MEND, DOTAP:DOPE:Chol = 3:4:3.
Setting [6] is: pDNA MEND, cationic lipid:DOPE:Chol = 3:3:4.
Where [7] appears, read: pDNA MEND, cationic lipid:POPE:Chol = 3:4:3.

“Also recorded” adds a separate entry of the source.

Consider `CCCCCCCC/C=C\CCCCCCCC(=O)OCC(CN(C)C)OC(=O)CCCCCCC/C=C\CCCCCCCC` (centres unmarked) [DODAP, reference compound], for which, in data set [1] (setting [3]), the PDI is 0.093, the “size (nm)” value is 151.1 nm and the “zeta (mV)” value was −3.18 mV. For the same compound, in data set [1] (setting [4]), the PDI is listed as 0.106, the “size (nm)” value turned out to be 165.6 nm and the “zeta (mV)” value amounted to 4.13 mV.

Consider `CCCCCCCC/C=C\CCCCCCCC(=O)OCC(C[N+](C)(C)C)OC(=O)CCCCCCC/C=C\CCCCCCCC` (centres unmarked) [DOTAP, reference compound], for which the “surface potential of MEND” value in data set [1] (pDNA MEND using DOTAP) was “about +50 mV”. Also, in data set [1] (setting [5]), the PDI is on record as 0.295, the “size (nm)” value is 235.8 nm and the “zeta (mV)” value is given as 57.9 mV.

Consider `CCCCCCCCCCCCCC(=O)OCCCN(C)CCCCCCN(C)CCCOC(=O)CCCCCCCCCCCCC` [Example B-2-1, reference compound], for which, in data set [1] (pDNA MEND), the “charge at physiological pH” value is on record as “+12.3 mV”. Further, in data set [1] (setting [3]), the PDI came out at 0.07, the “size (nm)” value worked out at 150.3 nm and the “zeta (mV)” value is recorded as 12.4 mV. In data set [1] (setting [4]), the PDI is 0.084, the “size (nm)” value amounted to 147.8 nm and the “zeta (mV)” value was 12.3 mV.

Turning to `CC1=C(/C=C/C(C)=C/C=C/C(C)=C/C(=O)OCCCN(C)CCSSCCN(C)CCCOC(=O)/C=C(C)/C=C/C=C(C)/C=C/C2=C(C)CCCC2(C)C)C(C)(C)CCC1` [Example B-2-4], the “FVII expression level in plasma (knockdown effect)” value (“FVII expression level in plasma” for short) in the data set on Factor VII (FVII) is reported as “decrease in the FVII expression level as compared to the non-treatment group”. Also, in data set [1] (setting [6]), the PDI is reported as 0.12, the “size (nm)” value was found to be 146.7 nm and the “zeta (mV)” value is given as −7.22 mV. For the same compound, in data set [2], the PDI is 0.11, the “size (nm)” value is listed as 186 nm and the “zeta (mV)” value was −5.1 mV.

With `Cc1c(C)c2c(c(C)c1OC(=O)CCC(=O)OCCCN(C)CCSSCCN(C)CCCOC(=O)CCC(=O)Oc1c(C)c(C)c3c(c1C)CCC(C)(CCCC(C)CCCC(C)CCCC(C)C)O3)CCC(C)(CCCC(C)CCCC(C)CCCC(C)C)O2` (centres unmarked) [Example B-2-5], the “FVII expression level in plasma” value in the data set on Factor VII (FVII) was “decrease in the FVII expression level as compared to the non-treatment group; also recorded: greatest knockdown effect”. For the same compound, in data set [1] (setting [7]), the PDI came to 0.15, the “size (nm)” value was 131.7 nm and the “zeta (mV)” value is −9.35 mV. Moreover, in data set [2], the PDI is listed as 0.13, the “size (nm)” value stood at 218 nm and the “zeta (mV)” value is reported as −9.1 mV.

For the compound `CCCCCCCCCCCCCC(=O)OCCCN(C)CCSSCCN(C)CCCOC(=O)CCCCCCCCCCCCC` [Example B-2], the “FVII expression level in plasma” value with Factor VII (FVII) is “decrease in the FVII expression level as compared to the non-treatment group”. Also, in data set [1] (setting [3]), the PDI came to 0.14, the “size (nm)” value is listed as 156.3 nm and the “zeta (mV)” value is on record as −0.08 mV. Also, in data set [1] (setting [4]), the PDI is on record as 0.11, the “size (nm)” value was found to be 168.9 nm and the “zeta (mV)” value was −2.95 mV. Also, in data set [2], the PDI came to 0.07, the “size (nm)” value is listed as 186 nm and the “zeta (mV)” value is −1.7 mV.
